From the kinase profiling compilation of Christmann-Franck et al. (2016)

Tests used:
Assay in all cases: KINOMEscan competition binding
Settings in all cases: compound 10.0 µM
KDR (human) = KDR (human) (UniProt P35968)
[1] = system: KIT (human), P10721 [A829P]
STK38 (human) = STK38 (human) (UniProt Q15208)
PIK3C2B (human) = PIK3C2B (human) (UniProt O00750)
LTK (human) = LTK (human) (UniProt P29376)
SGK3 (human) = SGK3 (human) (UniProt Q96BR1)
STK24 (human) = STK24 (human) (UniProt Q9Y6E0)
CSF1R (human) = CSF1R (human) (UniProt P07333)
STK25 (human) = STK25 (human) (UniProt O00506)
TNNI3K (human) = TNNI3K (human) (UniProt Q59H18)
LIMK2 (human) = LIMK2 (human) (UniProt P53671)
NIM1 (human) = NIM1 (human) (UniProt Q8IY84)
MLTK (human) = MLTK (human) (UniProt Q9NYL2)
RPS6KA2 KD1 (human) = RPS6KA2 KD1 (human) (UniProt Q15349)
ALK (human) = ALK (human) (UniProt Q9UM73)
EPHA2 (human) = EPHA2 (human) (UniProt P29317)
DSTYK (human) = DSTYK (human) (UniProt Q6XUX3)
MARK3 (human) = MARK3 (human) (UniProt P27448)
AURKA (human) = AURKA (human) (UniProt O14965)
AURKA (human), sequence (O14965 whole entry, looked up): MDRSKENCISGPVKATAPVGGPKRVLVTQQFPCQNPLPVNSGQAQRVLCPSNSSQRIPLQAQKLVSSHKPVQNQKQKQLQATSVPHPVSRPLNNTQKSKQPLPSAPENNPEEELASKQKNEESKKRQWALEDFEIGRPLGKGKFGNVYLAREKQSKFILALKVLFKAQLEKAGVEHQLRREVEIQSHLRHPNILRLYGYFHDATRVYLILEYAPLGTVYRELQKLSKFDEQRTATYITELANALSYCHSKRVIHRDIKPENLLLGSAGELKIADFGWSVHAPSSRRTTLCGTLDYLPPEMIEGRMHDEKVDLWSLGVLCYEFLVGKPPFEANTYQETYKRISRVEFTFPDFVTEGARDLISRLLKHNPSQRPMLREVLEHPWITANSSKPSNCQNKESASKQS

RIOK1 (human) = RIOK1 (human) (UniProt Q9BRS2)
PDPK1 (human) = PDPK1 (human) (UniProt O15530)
GSK3B (human) = GSK3B (human) (UniProt P49841)
STK36 (human) = STK36 (human) (UniProt Q9NRP7)
MAP3K5 (human) = MAP3K5 (human) (UniProt Q99683)
EGFR (human) = EGFR (human) (UniProt P00533)
STK11 (human) = STK11 (human) (UniProt Q15831)
STK11 (human), sequence (Q15831 whole entry, looked up): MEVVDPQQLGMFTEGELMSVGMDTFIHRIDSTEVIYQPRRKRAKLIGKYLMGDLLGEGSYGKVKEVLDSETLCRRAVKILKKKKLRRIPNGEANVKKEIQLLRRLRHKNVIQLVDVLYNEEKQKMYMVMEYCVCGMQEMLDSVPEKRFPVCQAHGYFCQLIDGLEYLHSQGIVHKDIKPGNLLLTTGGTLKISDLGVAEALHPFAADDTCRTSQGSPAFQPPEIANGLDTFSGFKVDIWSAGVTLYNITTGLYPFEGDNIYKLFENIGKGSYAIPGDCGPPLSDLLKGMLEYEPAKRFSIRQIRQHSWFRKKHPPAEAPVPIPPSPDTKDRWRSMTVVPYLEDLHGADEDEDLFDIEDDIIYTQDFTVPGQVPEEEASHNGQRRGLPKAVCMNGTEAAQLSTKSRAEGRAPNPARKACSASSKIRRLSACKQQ

STK17A (human) = STK17A (human) (UniProt Q9UEE5)
STK17A (human), sequence (Q9UEE5 whole entry, looked up): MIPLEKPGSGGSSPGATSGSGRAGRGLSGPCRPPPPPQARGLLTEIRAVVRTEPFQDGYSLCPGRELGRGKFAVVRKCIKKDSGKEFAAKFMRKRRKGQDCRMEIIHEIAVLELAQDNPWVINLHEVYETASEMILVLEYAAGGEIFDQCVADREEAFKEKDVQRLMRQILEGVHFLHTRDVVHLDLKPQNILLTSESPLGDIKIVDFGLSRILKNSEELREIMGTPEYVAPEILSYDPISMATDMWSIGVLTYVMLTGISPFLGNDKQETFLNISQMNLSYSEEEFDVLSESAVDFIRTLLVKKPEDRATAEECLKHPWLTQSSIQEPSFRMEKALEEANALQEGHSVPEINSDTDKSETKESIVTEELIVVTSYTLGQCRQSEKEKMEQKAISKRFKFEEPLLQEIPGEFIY

PLK2 (human) = PLK2 (human) (UniProt Q9NYY3)
RIPK1 (human) = RIPK1 (human) (UniProt Q13546)
FLT4 (human) = FLT4 (human) (UniProt P35916)
CHUK (human) = CHUK (human) (UniProt O15111)
CLK3 (human) = CLK3 (human) (UniProt P49761)
ROS1 (human) = ROS1 (human) (UniProt P08922)
RPS6KA6 KD1 (human) = RPS6KA6 KD1 (human) (UniProt Q9UK32)
MAP2K7 (human) = MAP2K7 (human) (UniProt O14733)
MAP2K7 (human), sequence (O14733 whole entry, looked up): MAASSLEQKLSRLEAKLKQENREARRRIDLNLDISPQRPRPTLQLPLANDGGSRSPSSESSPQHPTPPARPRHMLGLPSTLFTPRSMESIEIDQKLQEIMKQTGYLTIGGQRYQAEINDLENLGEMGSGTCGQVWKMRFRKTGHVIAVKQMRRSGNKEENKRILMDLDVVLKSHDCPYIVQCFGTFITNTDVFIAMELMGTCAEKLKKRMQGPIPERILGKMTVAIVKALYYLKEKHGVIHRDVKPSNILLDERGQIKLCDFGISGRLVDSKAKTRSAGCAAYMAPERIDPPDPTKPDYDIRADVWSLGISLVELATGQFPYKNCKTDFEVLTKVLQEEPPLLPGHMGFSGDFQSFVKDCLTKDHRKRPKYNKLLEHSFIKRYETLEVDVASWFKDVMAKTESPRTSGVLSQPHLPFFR

[2] = target: JAK2 JH1 catalytic (human) (UniProt O60674)
TBK1 (human) = TBK1 (human) (UniProt Q9UHD2)
CDK14 (human) = CDK14 (human) (UniProt O94921)
IKBKB (human) = IKBKB (human) (UniProt O14920)
CDK9 (human) = CDK9 (human) (UniProt P50750)

PIK3C2B (human), sequence (O00750 whole entry, looked up): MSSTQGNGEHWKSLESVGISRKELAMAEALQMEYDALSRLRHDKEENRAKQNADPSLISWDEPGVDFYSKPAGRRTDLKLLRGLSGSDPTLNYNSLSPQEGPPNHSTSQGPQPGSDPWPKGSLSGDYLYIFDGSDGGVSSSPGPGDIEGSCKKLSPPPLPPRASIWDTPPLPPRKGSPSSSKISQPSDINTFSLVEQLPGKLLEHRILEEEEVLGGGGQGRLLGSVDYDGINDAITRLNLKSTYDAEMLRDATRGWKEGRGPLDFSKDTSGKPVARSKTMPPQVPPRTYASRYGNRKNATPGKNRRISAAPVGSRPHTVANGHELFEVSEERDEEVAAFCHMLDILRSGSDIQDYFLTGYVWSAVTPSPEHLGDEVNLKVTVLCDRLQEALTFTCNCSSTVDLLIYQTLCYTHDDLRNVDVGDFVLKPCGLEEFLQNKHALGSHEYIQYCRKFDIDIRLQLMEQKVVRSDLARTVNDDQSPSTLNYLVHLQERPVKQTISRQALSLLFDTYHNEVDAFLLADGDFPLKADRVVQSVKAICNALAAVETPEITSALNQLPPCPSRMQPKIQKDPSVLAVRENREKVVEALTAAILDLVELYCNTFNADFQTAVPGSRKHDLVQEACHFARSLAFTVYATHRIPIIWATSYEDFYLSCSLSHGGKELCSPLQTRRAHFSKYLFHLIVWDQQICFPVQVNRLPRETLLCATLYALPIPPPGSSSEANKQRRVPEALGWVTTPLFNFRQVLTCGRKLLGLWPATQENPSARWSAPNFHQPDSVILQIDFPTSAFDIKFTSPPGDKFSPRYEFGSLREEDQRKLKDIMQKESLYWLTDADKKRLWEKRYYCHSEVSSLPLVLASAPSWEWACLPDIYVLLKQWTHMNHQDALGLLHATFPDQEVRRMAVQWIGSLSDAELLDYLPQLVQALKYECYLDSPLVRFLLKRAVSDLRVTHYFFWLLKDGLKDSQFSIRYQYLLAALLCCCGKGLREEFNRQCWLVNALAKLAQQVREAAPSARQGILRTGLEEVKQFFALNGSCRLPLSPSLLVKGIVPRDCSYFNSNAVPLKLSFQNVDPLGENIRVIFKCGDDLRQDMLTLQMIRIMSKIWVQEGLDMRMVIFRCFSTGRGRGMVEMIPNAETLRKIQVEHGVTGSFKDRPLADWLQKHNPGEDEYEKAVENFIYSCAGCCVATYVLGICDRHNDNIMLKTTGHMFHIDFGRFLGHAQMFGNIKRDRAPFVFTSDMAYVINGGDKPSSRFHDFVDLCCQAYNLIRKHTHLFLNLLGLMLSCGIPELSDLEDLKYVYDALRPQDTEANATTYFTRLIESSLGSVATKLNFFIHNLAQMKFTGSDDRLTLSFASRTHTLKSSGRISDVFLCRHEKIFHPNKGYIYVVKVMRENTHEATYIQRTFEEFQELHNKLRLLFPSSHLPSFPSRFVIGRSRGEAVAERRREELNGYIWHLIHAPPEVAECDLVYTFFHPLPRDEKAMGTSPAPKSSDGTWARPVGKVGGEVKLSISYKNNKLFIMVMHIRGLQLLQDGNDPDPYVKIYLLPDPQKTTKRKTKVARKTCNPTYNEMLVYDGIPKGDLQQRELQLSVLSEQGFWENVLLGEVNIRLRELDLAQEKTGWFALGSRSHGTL
KIT (human), P10721 [A829P], sequence (P10721 whole entry A829P, looked up): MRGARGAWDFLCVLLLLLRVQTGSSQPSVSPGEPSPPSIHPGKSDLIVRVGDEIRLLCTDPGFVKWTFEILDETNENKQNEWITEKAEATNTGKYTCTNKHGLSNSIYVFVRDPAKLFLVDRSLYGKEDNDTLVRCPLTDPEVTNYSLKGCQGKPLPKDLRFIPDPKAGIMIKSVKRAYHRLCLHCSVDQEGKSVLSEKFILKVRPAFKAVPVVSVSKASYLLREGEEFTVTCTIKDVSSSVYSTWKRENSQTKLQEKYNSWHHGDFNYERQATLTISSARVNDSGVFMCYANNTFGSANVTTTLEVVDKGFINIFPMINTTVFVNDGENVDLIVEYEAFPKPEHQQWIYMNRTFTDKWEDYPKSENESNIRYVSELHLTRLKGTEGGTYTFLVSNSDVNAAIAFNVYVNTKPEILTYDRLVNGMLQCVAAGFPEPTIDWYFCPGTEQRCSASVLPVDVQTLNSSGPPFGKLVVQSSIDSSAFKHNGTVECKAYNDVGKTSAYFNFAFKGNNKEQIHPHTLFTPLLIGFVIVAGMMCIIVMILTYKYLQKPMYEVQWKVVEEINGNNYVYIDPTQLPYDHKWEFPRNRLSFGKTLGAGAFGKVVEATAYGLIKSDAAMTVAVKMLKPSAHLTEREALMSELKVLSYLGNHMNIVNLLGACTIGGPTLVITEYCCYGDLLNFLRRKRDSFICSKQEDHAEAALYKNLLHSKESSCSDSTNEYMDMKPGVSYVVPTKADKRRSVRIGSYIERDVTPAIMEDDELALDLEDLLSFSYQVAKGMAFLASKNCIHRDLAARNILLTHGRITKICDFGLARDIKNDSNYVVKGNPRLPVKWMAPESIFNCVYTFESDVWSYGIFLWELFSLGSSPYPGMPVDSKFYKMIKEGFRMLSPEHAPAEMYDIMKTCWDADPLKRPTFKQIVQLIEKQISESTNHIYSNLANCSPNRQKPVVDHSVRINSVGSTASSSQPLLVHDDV
SGK3 (human), sequence (Q96BR1 whole entry, looked up): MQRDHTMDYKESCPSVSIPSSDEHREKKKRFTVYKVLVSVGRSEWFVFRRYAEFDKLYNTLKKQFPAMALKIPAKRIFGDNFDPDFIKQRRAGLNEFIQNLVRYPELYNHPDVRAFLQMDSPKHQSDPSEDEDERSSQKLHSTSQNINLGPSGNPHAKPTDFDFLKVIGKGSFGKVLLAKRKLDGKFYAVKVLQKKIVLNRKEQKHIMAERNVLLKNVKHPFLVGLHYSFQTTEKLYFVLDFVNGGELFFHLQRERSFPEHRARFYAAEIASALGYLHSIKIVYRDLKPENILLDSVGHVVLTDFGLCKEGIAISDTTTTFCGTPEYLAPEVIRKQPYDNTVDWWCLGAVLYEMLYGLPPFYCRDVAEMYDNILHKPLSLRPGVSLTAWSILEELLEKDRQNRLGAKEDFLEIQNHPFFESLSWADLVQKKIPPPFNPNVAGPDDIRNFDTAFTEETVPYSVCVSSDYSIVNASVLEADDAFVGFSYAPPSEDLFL

**Q.** For `COc1cc2c(Nc3ccc(NC(=O)c4ccccc4)cc3)ncnc2cc1OCCCN1CCOCC1`, which kinase still bound, per cent of control (KDR (human)) is on record?
**A.** 26%

**Q.** What about the kinase still bound, per cent of control [1] of the same molecule?
**A.** 59%

**Q.** What about the kinase still bound, per cent of control (STK38 (human)) of the same molecule?
**A.** 92%

**Q.** What about the kinase still bound, per cent of control (PIK3C2B (human)) of the same molecule?
**A.** 100%

**Q.** And the kinase still bound, per cent of control (LTK (human))?
**A.** 6.3%

**Q.** What about the kinase still bound, per cent of control (SGK3 (human)) of the same molecule?
**A.** 100%

**Q.** And the kinase still bound, per cent of control (STK24 (human))?
**A.** 46%

**Q.** What about the kinase still bound, per cent of control (CSF1R (human)) of the same molecule?
**A.** 16%

**Q.** And the kinase still bound, per cent of control (STK25 (human))?
**A.** 63%

**Q.** And the kinase still bound, per cent of control (TNNI3K (human))?
**A.** 94%

**Q.** And the kinase still bound, per cent of control (LIMK2 (human))?
**A.** 78%

**Q.** And the kinase still bound, per cent of control (NIM1 (human))?
**A.** 100%

**Q.** What about the kinase still bound, per cent of control (MLTK (human)) of the same molecule?
**A.** 34%

**Q.** And the kinase still bound, per cent of control (RPS6KA2 KD1 (human))?
**A.** 84%

**Q.** What about the kinase still bound, per cent of control (ALK (human)) of the same molecule?
**A.** 26%

**Q.** And the kinase still bound, per cent of control (EPHA2 (human))?
**A.** 84%

**Q.** And the kinase still bound, per cent of control (DSTYK (human))?
**A.** 34%

**Q.** And the kinase still bound, per cent of control (MARK3 (human))?
**A.** 96%

**Q.** And the kinase still bound, per cent of control (AURKA (human))?
**A.** 8.6%

**Q.** What about the kinase still bound, per cent of control (RIOK1 (human)) of the same molecule?
**A.** 100%

**Q.** And the kinase still bound, per cent of control (PDPK1 (human))?
**A.** 100%

**Q.** What about the kinase still bound, per cent of control (GSK3B (human)) of the same molecule?
**A.** 70%

**Q.** What about the kinase still bound, per cent of control (STK36 (human)) of the same molecule?
**A.** 98%

**Q.** What about the kinase still bound, per cent of control (MAP3K5 (human)) of the same molecule?
**A.** 100%

**Q.** And the kinase still bound, per cent of control (EGFR (human))?
**A.** 0.65%

**Q.** And the kinase still bound, per cent of control (STK11 (human))?
**A.** 100%

**Q.** And the kinase still bound, per cent of control (STK17A (human))?
**A.** 100%

**Q.** What about the kinase still bound, per cent of control (PLK2 (human)) of the same molecule?
**A.** 100%

**Q.** What about the kinase still bound, per cent of control (RIPK1 (human)) of the same molecule?
**A.** 100%

**Q.** And the kinase still bound, per cent of control (FLT4 (human))?
**A.** 83%

**Q.** What about the kinase still bound, per cent of control (CHUK (human)) of the same molecule?
**A.** 100%

**Q.** What about the kinase still bound, per cent of control (CLK3 (human)) of the same molecule?
**A.** 100%

**Q.** And the kinase still bound, per cent of control (ROS1 (human))?
**A.** 41%

**Q.** What about the kinase still bound, per cent of control (RPS6KA6 KD1 (human)) of the same molecule?
**A.** 68%

**Q.** What about the kinase still bound, per cent of control (MAP2K7 (human)) of the same molecule?
**A.** 100%

**Q.** And the kinase still bound, per cent of control [2]?
**A.** 72%

**Q.** And the kinase still bound, per cent of control (TBK1 (human))?
**A.** 66%

**Q.** And the kinase still bound, per cent of control (CDK14 (human))?
**A.** 100%

**Q.** What about the kinase still bound, per cent of control (IKBKB (human)) of the same molecule?
**A.** 100%

**Q.** And the kinase still bound, per cent of control (CDK9 (human))?
**A.** 100%
